The record followed here is US11390604B2 (Hoffmann-La Roche Inc., priority 2019, dated 2022).

SMILES strings stand for the structures. Where a name gives a salt, the structure may show the parent alone. Read-outs that look alike come from different tables or passages of the source.

The experiment has as its system Acinetobacter baumannii ATCC 17961. The experiment can be described thus: Antimicrobial susceptibility testing: 90% growth inhibitory concentration (IC90) determination. It counts as cell-based. On the procedure: Antimicrobial Susceptibility Testing:
90% Growth Inhibitory Concentration (IC90) Determination
The in vitro antimicrobial activity of the compounds was determined according to the following procedure:
The assay used a 10-points Iso-Sensitest broth medium to measure quantitatively the in vitro activity of the compounds against Acinetobacter baumannii ATCC 17961.
Stock compounds in DMSO were serially twofold diluted (e.g. range from 50 to 0.097 μM final concentration) in 384 wells microtiter plates and inoculated with 49 μl the bacterial suspension in Iso-Sensitest medium to have a final cell concentration of ˜5×10^(5) CFU/ml in a final volume/well of 50 ul/well. Microtiter plates were incubated at 35±2° C.
Bacterial cell growth was determined with the measurement of optical density at X=600 nm each 20 minutes over a time course of 16 h. Growth inhibition was calculated during the logarithmic growth of the bacterial cells with determination of the concentration inhibiting 50% (IC50) and 90% (IC90) of the growth.
Table 1 provides the 90% growth inhibitory concentrations (IC90) in micromoles per liter of the compounds of present disclosure obtained against the strain Acinetobacter baumannii ATCC 17961.

Setting [1] is: ATCC17961, Acinetobacter baumannii ATCC 17961, Iso-Sensitest broth, read-out: ATCC 17961 IC90.

On to `CN(CCCCNC(=O)c1ccc(NC(=O)c2ncc(-c3cn(C4CC4(F)F)nc3C(F)(F)F)n2C)cc1Cl)C(=O)N[C@H]1CNC[C@@H]1O` (mixture of isomers) [Example 331, rac-N-(3-chloro-4-((4-(3-((3S,4S)-4-hydroxypyrrolidin-3-yl)-1-methylureido)butyl)carbamoyl)phenyl)-5-(1-(2,2-difluorocyclopropyl)-3-(trifluoromethyl)-1H-pyrazol-4-yl)-1-methyl-1H-imidazole-2-carboxamide formate], for which the IC90 under setting [1] was determined as 422 nM.

With `Cn1c(-c2cn(C3CC3(F)F)nc2C(F)(F)F)cnc1C(=O)Nc1ccc(C(=O)NC2(C)CCN(C(=O)N[C@H]3C[C@@H](N)C3)CC2)c(Cl)c1` (mixture of isomers) [Example 333, rac-N-((1s,3s)-3-aminocyclobutyl)-4-(2-chloro-4-(5-(1-(2,2-difluorocyclopropyl)-3-(trifluoromethyl)-1H-pyrazol-4-yl)-1-methyl-1H-imidazole-2-carboxamido)benzamido)-4-methylpiperidine-1-carboxamide formate], under setting [1], the IC90 stood at 422 nM.

For the molecule `Cn1c(-c2cn(C3CC3(F)F)nc2C(F)(F)F)cnc1C(=O)Nc1ccc(C(=O)N[C@H]2C[C@H]3CC[C@@H](C2)N3)c(Cl)c1` (mixture of isomers) [Example 346, rac-N-(4-(((1R,3r,5S)-8-azabicyclo[3.2.1]octan-3-yl)carbamoyl)-3-chlorophenyl)-5-(1-(2,2-difluorocyclopropyl)-3-(trifluoromethyl)-1H-pyrazol-4-yl)-1-methyl-1H-imidazole-2-carboxamide formate], the IC90 under setting [1] is 446 nM.

In the case of `Cn1c(-c2cn(C3CC3(F)F)nc2C(F)(F)F)cnc1C(=O)Nc1ccc(C(=O)NC2CC3CN(C(=O)N[C@H]4CNC[C@@H]4O)CC32)c(Cl)c1` (mixture of isomers) [Example 347, rac-6-(2-chloro-4-(5-(1-(2,2-difluorocyclopropyl)-3-(trifluoromethyl)-1H-pyrazol-4-yl)-1-methyl-1H-imidazole-2-carboxamido)benzamido)-N-((3S,4S)-4-hydroxypyrrolidin-3-yl)-3-azabicyclo[3.2.0]heptane-3-carboxamide formate], the IC90 under setting [1] is 446 nM.

Regarding `COC1CN(C(=O)N[C@H]2CNC[C@@H]2O)CC1NC(=O)c1ccc(NC(=O)c2ncc(-c3cn(C4CC4(F)F)nc3C(F)(F)F)n2C)cc1Cl` (mixture of isomers) [Example 350, rac-N-(3-chloro-4-((trans-1-(((3R,4R)-4-hydroxypyrrolidin-3-yl)carbamoyl)-4-methoxypyrrolidin-3-yl)carbamoyl)phenyl)-5-(1-(2,2-difluorocyclopropyl)-3-(trifluoromethyl)-1H-pyrazol-4-yl)-1-methyl-1H-imidazole-2-carboxamide formate], the IC90 under setting [1] was found to be 450 nM.

With `Cn1c(-c2cn(CC3CC3)nc2C(F)(F)F)cnc1C(=O)Nc1ccc(C(=O)N2CCN(C(=O)C3[C@H]4CNC[C@@H]34)CC2)c(Cl)c1` (mixture of isomers) [Example 358, rac-N-(4-(4-((1R,5S)-3-azabicyclo[3.1.0]hexane-6-carbonyl)piperazine-1-carbonyl)-3-chlorophenyl)-5-(1-(cyclopropylmethyl)-3-(trifluoromethyl)-1H-pyrazol-4-yl)-1-methyl-1H-imidazole-2-carboxamide hydrochloride], the concentration for an effect of 90% (IC90) under setting [1] amounted to 467 nM.

`Cn1c(-c2cn(C3CC3(F)F)nc2C(F)(F)F)cnc1C(=O)Nc1ccc(C(=O)NCC2C3CN(C(=O)N[C@H]4CNC[C@@H]4O)CC23)c(Cl)c1` (mixture of isomers) [Example 365, rac-6-((2-chloro-4-(5-(1-(2,2-difluorocyclopropyl)-3-(trifluoromethyl)-1H-pyrazol-4-yl)-1-methyl-1H-imidazole-2-carboxamido)benzamido)methyl)-N-((3S,4S)-4-hydroxypyrrolidin-3-yl)-3-azabicyclo[3.1.0]hexane-3-carboxamide formate]: the 90% effect concentration (IC90) under setting [1] stood at 483 nM.

As to `Cn1c(-c2cn(CC3CC3(F)F)nc2C(F)(F)F)cnc1C(=O)Nc1ccc(C(=O)N[C@H]2[C@@H]3CN(C(=O)N[C@@H]4CNC[C@H]4O)C[C@@H]32)c(Cl)c1` (mixture of isomers) [Example 385, rac-(1R,5S,6s)-6-(2-chloro-4-(5-(1-((2,2-difluorocyclopropyl)methyl)-3-(trifluoromethyl)-1H-pyrazol-4-yl)-1-methyl-1H-imidazole-2-carboxamido)benzamido)-N-((3S,4S)-4-hydroxypyrrolidin-3-yl)-3-azabicyclo[3.1.0]hexane-3-carboxamide formate], the IC90 under setting [1] worked out at 100 nM.

Turning to `Cn1c(-c2cn(C3CC3(F)F)nc2C(F)(F)F)cnc1C(=O)Nc1ccc(C(=O)N2CCC(F)(CNC(=O)N[C@H]3CNC[C@@H]3O)CC2)c(Cl)c1` (relative stereo) [Example 179, N-(3-chloro-4-(4-fluoro-4-((3-(trans-4-hydroxypyrrolidin-3-yl)ureido)methyl)piperidine-1-carbonyl)phenyl)-5-(1-(2,2-difluorocyclopropyl)-3-(trifluoromethyl)-1H-pyrazol-4-yl)-1-methyl-1H-imidazole-2-carboxamide Formate], for the setting “Acinetobacter baumannii, ATCC17961, read-out: ATCC 17961 IC90, Acinetobacter baumannii ATCC 17961, Iso-Sensitest broth”, the IC90 came out at 192 nM.

Turning to `Cn1c(-c2cn(C3CC3(F)F)nc2C(F)(F)F)cnc1C(=O)Nc1ccc(C(=O)NC2CCN(C(=O)N[C@@H]3CNC[C@H]3O)CC2)c(Cl)c1` (relative stereo) [Example 337, 4-(2-chloro-4-(5-(1-(2,2-difluorocyclopropyl)-3-(trifluoromethyl)-1H-pyrazol-4-yl)-1-methyl-1H-imidazole-2-carboxamido)benzamido)-N-(trans-4-hydroxypyrrolidin-3-yl)piperidine-1-carboxamide], under setting [1], the IC90 was determined as 426 nM.

Take `Cn1c(-c2c[nH]nc2C(F)(F)F)cnc1C(=O)Nc1ccc(C(=O)N2CCN(C(=O)C3CCNCC3)CC2)c(Cl)c1` [Example 1, N-(3-chloro-4-(4-(piperidine-4-carbonyl)piperazine-1-carbonyl)phenyl)-1-methyl-5-(3-(trifluoromethyl)-1H-pyrazol-4-yl)-1H-imidazole-2-carboxamide hydrochloride]: the IC90 under setting [1] was found to be 525 nM.

Consider `Cn1c(-c2cn(CC(F)(F)F)nc2C(F)(F)F)cnc1C(=O)Nc1ccc(C(=O)N2CCN(C(=O)C3CCNCC3)CC2)c(Cl)c1` [Example 2, N-(3-Chloro-4-(4-(piperidine-4-carbonyl)piperazine-1-carbonyl)phenyl)-1-methyl-5-(1-(2,2,2-trifluoroethyl)-3-(trifluoromethyl)-1H-pyrazol-4-yl)-1H-imidazole-2-carboxamide Hydrochloride], for which the IC90 under setting [1] was found to be 399 nM.

Regarding `Cn1c(-c2cn(CCC(N)=O)nc2C(F)(F)F)cnc1C(=O)Nc1ccc(C(=O)N2CCN(C(=O)C3CCNCC3)CC2)c(Cl)c1` [Example 4, 5-(1-(3-amino-3-oxopropyl)-3-(trifluoromethyl)-1H-pyrazol-4-yl)-N-(3-chloro-4-(4-(piperidine-4-carbonyl)piperazine-1-carbonyl)phenyl)-1-methyl-1H-imidazole-2-carboxamide], the concentration for an effect of 90% (IC90) under setting [1] turned out to be 4060 nM.

Turning to `Cn1c(-c2cn(CCC#N)nc2C(F)(F)F)cnc1C(=O)Nc1ccc(C(=O)N2CCN(C(=O)C3CCNCC3)CC2)c(Cl)c1` [Example 5, N-(3-chloro-4-(4-(piperidine-4-carbonyl)piperazine-1-carbonyl)phenyl)-5-(1-(2-cyanoethyl)-3-(trifluoromethyl)-1H-pyrazol-4-yl)-1-methyl-1H-imidazole-2-carboxamide], the IC90 under setting [1] was found to be 1040 nM.

With `Cn1c(-c2cn(CC#CCO)nc2C(F)(F)F)cnc1C(=O)Nc1ccc(C(=O)N2CCN(C(=O)C3CCNCC3)CC2)c(Cl)c1` [Example 6, N-(3-chloro-4-(4-(piperidine-4-carbonyl)piperazine-1-carbonyl)phenyl)-5-(1-(4-hydroxybut-2-yn-1-yl)-3-(trifluoromethyl)-1H-pyrazol-4-yl)-1-methyl-1H-imidazole-2-carboxamide hydrochloride], the IC90 under setting [1] worked out at 676 nM.

With `C=CCn1cc(-c2cnc(C(=O)Nc3ccc(C(=O)N4CCN(C(=O)C5CCNCC5)CC4)c(Cl)c3)n2C)c(C(F)(F)F)n1` [Example 7, 5-(1-allyl-3-(trifluoromethyl)-1H-pyrazol-4-yl)-N-(3-chloro-4-(4-(piperidine-4-carbonyl)piperazine-1-carbonyl)phenyl)-1-methyl-1H-imidazole-2-carboxamide hydrochloride], the IC90 under setting [1] is 358 nM.

Take `CC#CCn1cc(-c2cnc(C(=O)Nc3ccc(C(=O)N4CCN(C(=O)C5CCNCC5)CC4)c(Cl)c3)n2C)c(C(F)(F)F)n1` [Example 8, 5-(1-(but-2-yn-1-yl)-3-(trifluoromethyl)-1H-pyrazol-4-yl)-N-(3-chloro-4-(4-(piperidine-4-carbonyl)piperazine-1-carbonyl)phenyl)-1-methyl-1H-imidazole-2-carboxamide hydrochloride]: under setting [1], the IC90 was determined as 327 nM.

For the molecule `C#CC(C)n1cc(-c2cnc(C(=O)Nc3ccc(C(=O)N4CCN(C(=O)C5CCNCC5)CC4)c(Cl)c3)n2C)c(C(F)(F)F)n1` (stereo not drawn) [Example 9, 5-(1-(but-3-yn-2-yl)-3-(trifluoromethyl)-1H-pyrazol-4-yl)-N-(3-chloro-4-(4-(piperidine-4-carbonyl)piperazine-1-carbonyl)phenyl)-1-methyl-1H-imidazole-2-carboxamide hydrochloride], the IC90 under setting [1] turned out to be 320 nM.

Broadly, the IC90 is the point of the concentration-response curve where the effect stands at 90%.
